According to patent US20250188092A1, “RIFAMYCIN ANALOGS” (THE REGENTS OF THE UNIVERSITY OF MICHIGAN, priority 2021, published 2025):
In brackets after ≈: the same amount, converted by molar mass.

How the values were obtained:
VERO cells (ATCC CRL-81) = assay: Vero cell toxicity; type: cell-based; details: Chlorocebus sabaeus, Vero; 72 hours exposure
Procedure: Cytotoxicity for a mammalian cell line was determined by exposing VERO cells (ATCC CRL-81) to serial dilutions of test compounds for 72 hours, followed by addition of resazurin and measurement of fluorescence after 4 hours incubation (Choules, et al., Antimnicrob. Agents Chemother. 2019, 63, e02204-02218).

MTB H37Rv ATCC 27294 = assay: MIC, microplate Alamar Blue assay (MABA); type: cell-based, Mycobacterium tuberculosis; details: for MIC90: Mycobacterium tuberculosis, MTB H37Rv ATCC 27294, microplate Alamar Blue assay, lowest concentration giving ≥90% reduction in fluorescence
DPX2 cells = details: for DPX2 Viability @ 6.25 μM: 24 h; for DPX2 Viability @ 25 μM: human

Structure (SMILES)	IC50 (VERO cells (ATCC CRL-81)) [µM]	MIC90 MABA Rel to RMP (MTB H37Rv ATCC 27294)	MIC90 (MTB H37Rv ATCC 27294) [nM]	DPX2 Viability @ 6.25 μM (DPX2 cells) [%]	DPX2 Viability @ 25 μM (DPX2 cells) [%]
CO[C@H]1/C=C/O[C@@]2(C)Oc3c(C)c(O)c4c(=O)c(c5oc6cc(N7CCOC(CN(C)C)C7)cc(OCc7ccc(CN8CCOCC8)cc7)c6nc-5c4c3C2=O)NC(=O)/C(C)=C\C=C\[C@H](C)[C@H](O)[C@@H](C)[C@@H](O)[C@@H](C)[C@H](OC(C)=O)[C@@H]1C (stereo partly drawn) [Compound 17o, (7S,9E,11S,12R,13S,14R,15R,16R,17S,18S,19E,21Z)-30-{2-[(dimethylamino)methyl]morpholin-4-yl}-2,15,17-trihydroxy-11-methoxy-3,7,12,14,16,18,22-heptamethyl-32-{[4-(morpholin-4-ylmethyl)phenyl]methoxy}-6,23,37-trioxo-8,27,38-trioxa-24,34-diazahexacyclo[23.11.1.1^4,7.0^5,36.0^26,35.0^28,33]octatriaconta-1,3,5(36)9,19,21,25,28,30,32,34-undecaen-13-yl acetate]	> 10	1.1	55	96	42
CO[C@H]1/C=C/O[C@@]2(C)Oc3c(C)c(O)c4c(=O)c(c5oc6cc(N7CCN(CC(C)C)CC7)cc(OCc7ccc(CN8CCN(C)CC8)cc7)c6nc-5c4c3C2=O)NC(=O)/C(C)=C\C=C\[C@H](C)[C@H](O)[C@@H](C)[C@@H](O)[C@@H](C)[C@H](OC(C)=O)[C@@H]1C [Compound 17p, (7S,9E,11S,12R,13S,14R,15R,16R,17S,18S,19E,21Z)-2,15,17-trihydroxy-11-methoxy-3,7,12,14,16,18,22-heptamethyl-32-({4-[(4-methylpiperazin-1-yl)methyl]phenyl}methoxy)-30-[4-(2-methylpropyl)piperazin-1-yl]-6,23,37-trioxo-8,27,38-trioxa-24,34-diazahexacyclo-[23.11.1.1^4,7.0^5,36.0^26,35.0^28,33]octatriaconta-1,3,5(36)9,19,21,25,28,30,32,34-undecaen-13-yl acetate]	> 10	–	9.4	116	80
CO[C@H]1/C=C/O[C@@]2(C)Oc3c(C)c(O)c4c(=O)c(c5oc6cc(N7CCC(C(=O)O)CC7)cc(OCc7ccc(CN8CCN(C)CC8)cc7)c6nc-5c4c3C2=O)NC(=O)/C(C)=C\C=C\[C@H](C)[C@H](O)[C@@H](C)[C@@H](O)[C@@H](C)[C@H](OC(C)=O)[C@@H]1C [Compound 17q, 1-[(7S,9E,11S,12R,13S,14R,15R,16R,17S,18S,19E,21Z)-13-(acetyloxy)-2,15,17-trihydroxy-11-methoxy-3,7,12,14,16,18,22-heptamethyl-32-({4-[(4-methylpiperazin-1-yl)methyl]phenyl}methoxy)-6,23,37-trioxo-8,27,38-trioxa-24,34-diazahexacyclo-[23.11.1.1^4,7.0^5,36.0^26,35.0^28,33]-octatriaconta-1,3,5(36)9,19,21,25,28,30,32,34-undecaen-30-yl]piperidine-4-carboxylic acid]	> 10	16	415 (≈ 0.469 µg/mL)	100	98
CO[C@H]1/C=C/O[C@@]2(C)Oc3c(C)c(O)c4c(=O)c(c5oc6cc(N7CCN(C(=O)c8ccc9occc9c8)CC7)cc(OCc7ccc(CN8CCOCC8)cc7)c6nc-5c4c3C2=O)NC(=O)/C(C)=C\C=C\[C@H](C)[C@H](O)[C@@H](C)[C@@H](O)[C@@H](C)[C@H](OC(C)=O)[C@@H]1C [Compound 17s, (7S,9E,11S,12R,13S,14R,15R,16R,17S,18S,19E,21Z)-30-{4-[(1-benzofuran-5-yl)carbonyl]piperazin-1-yl}-2,15,17-trihydroxy-11-methoxy-3,7,12,14,16,18,22-heptamethyl-32-{[4-(morpholin-4-ylmethyl)phenyl]methoxy}-6,23,37-trioxo-8,27,38-trioxa-24,34-diazahexacyclo[23.11.1.1^4,7.0^5,36.0^26,35.0^28,33]octatriaconta-1,3,5(36)9,19,21,25,28,30,32,34-undecaen-13-yl acetate]	> 10	0.36	18	102	86
CO[C@H]1/C=C/O[C@@]2(C)Oc3c(C)c(O)c4c(=O)c(c5oc6cc(N7CCCC(C(=O)Nc8ccc(Cl)cc8)C7)cc(C)c6nc-5c4c3C2=O)NC(=O)/C(C)=C\C=C\[C@H](C)[C@H](O)[C@@H](C)[C@@H](O)[C@@H](C)[C@H](OC(C)=O)[C@@H]1C (stereo partly drawn) [Compound 28, (7S,9E,11S,12R,13S,14R,15R,16R,17S,1S,19E,21Z)-30-{3-[(4-Chlorophenyl)carbamoyl]piperidin-1-yl}-2,15,17-trihydroxy-11-methoxy-3,7,12,14,16,18,22,32-octamethyl-6,23,37-trioxo-8,27,38-trioxa-24,34-diazahexacyclo[23.11.1.1^4,7.0^5,36.0^26,35.0^28,33]octatriaconta-1(36)2,4,9,19,21,25,28,30,32,34-undecaen-13-yl acetate]	> 10	0.16	4.4	110	109
CO[C@H]1/C=C/O[C@@]2(C)Oc3c(C)c(O)c4c(=O)c(c5oc6cc(N7CCN(C(=O)c8cccc(-c9ccccn9)c8)CC7)cc(C)c6nc-5c4c3C2=O)NC(=O)/C(C)=C\C=C\[C@H](C)[C@H](O)[C@@H](C)[C@@H](O)[C@@H](C)[C@H](OC(C)=O)[C@@H]1C [Compound 29b, (7S,9E,11S,12R,13S,14R,15R,16R,17S,18S,19E,21Z)-2,15,17-Trihydroxy-11-methoxy-3,7,12,14,16,18,22,32-octamethyl-6,23,37-trioxo-30-(4-[3-(pyridin-2-yl)benzoyl]piperazin-1-yl)-8,27,38-trioxa-24,34-diazahexacyclo-[23.11.1.1^4,7.0^5,36.0^26,35.0^28,33]octatriaconta-1(36)2,4,9,19,21,25,28,30,32,34-undecaen-13-yl acetate]	> 10	0.32	8.7	136	128
CO[C@H]1/C=C/O[C@@]2(C)Oc3c(C)c(O)c4c(=O)c(c5oc6cc(N7CCN(C(=O)c8ccc9occc9c8)CC7)cc(C)c6nc-5c4c3C2=O)NC(=O)/C(C)=C\C=C\[C@H](C)[C@H](O)[C@@H](C)[C@@H](O)[C@@H](C)[C@H](OC(C)=O)[C@@H]1C [Compound 29c, (7S,9E,11S,12R,13S,14R,15R,16R,17S,18S,19E,21Z)-30-[4-(1-Benzofuran-5-carbonyl)piperazin-1-yl]-2,15,17-trihydroxy-11-methoxy-3,7,12,14,16,18,22,32-octamethyl-6,23,37-trioxo-8,27,38-trioxa-24,34-diazahexacyclo[23.11.1.1^4,7.0^5,36.0^26,35.0^28,33]octatriaconta-(36)2,4,9,19,21,25,28,30,32,34-undecaen-13-yl acetate]	> 10	0.18	4.9	121	114
